According to the supplement of paper PMC10307832:

compound: CCOC(=O)CCNc1cc(N2CCc3ccccc3CC2)nc(-c2ccccn2)n1 [GSK-J4] + CC(=O)c1c(C)c2cnc(Nc3ccc(N4CCNCC4)cn3)nc2n(C2CCCC2)c1=O [Palbociclib] (partner 0.5 µM); assay: relative viability (nuclei count vs DMSO), 5 days (fraction); higher = more cells survive; settings: first compound 50 µM
Procedure, shortened: (§1)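 Lung cancer cell lines, seeded in 1536-well plates, were treated the following day by pin tool with a single drug or with five library-drug doses (not always all listed) in √10 steps on top of a fixed anchor-drug dose. Cells were fixed and nuclei stained in one step after 5 days, and nuclei were counted. Relative viability is the nuclei count for treated wells divided by that for vehicle wells, reported as medians of duplicate plates.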

Cell Line	relative viability
HCC-366	0.354
NCI-H1793	0.162
RERF-LC-KJ	0.728
EMC-BAC-2	0.471
LCLC-97TM1	0.272
NCI-H1651	0.509

compound: CCOC(=O)CCNc1cc(N2CCc3ccccc3CC2)nc(-c2ccccn2)n1 [GSK-J4] + N=C(N)NC(=N)NCCc1ccccc1 [Phenformin] (partner 250 µM); assay: as above; settings: first compound 0.5 µM
Procedure, shortened: as §1

Cell Line	relative viability
SW 900	0.581
CAL-12T	0.702
HCC-15	0.458
HOP-62	0.612
NCI-H460	0.515
LU99A	0.866
NCI-H2085	0.724
A-427	0.406
NCI-H520	0.582
NCI-H838	0.798
NCI-H1792	0.267
NCI-H3122	0.37
BEN	0.25
NCI-H1395	0.418
201T	0.444
NCI-H1993	0.476
NCI-H1355	0.447

Cell Line	relative viability
NCI-H2405	0.442
NCI-H1437	0.319
NCI-H661	0.269
COR-L 105	0.408
H3255	0.331
NCI-H2347	0.324
NCI-H1975	0.415
NCI-H441	0.819
NCI-H1650	0.512
NCI-H1915	0.36
NCI-H2087	0.466
HCC-366	0.574
NCI-H1793	0.446
RERF-LC-KJ	0.424
EMC-BAC-2	0.502
LCLC-97TM1	0.369
NCI-H1651	0.294

same assay, conditions: first compound 1.581 µM

Cell Line	relative viability
SW 900	0.592
CAL-12T	0.549
HOP-62	0.548
NCI-H460	0.365
LU99A	0.671
NCI-H2085	0.674
NCI-H520	0.478
NCI-H838	0.465
NCI-H1792	0.258
BEN	0.261
NCI-H1395	0.459
201T	0.479
NCI-H1993	0.545
NCI-H1355	0.39
NCI-H2405	0.386
NCI-H1437	0.263
NCI-H661	0.312
COR-L 105	0.395
H3255	0.381
NCI-H2347	0.384
NCI-H1975	0.417
NCI-H441	0.852
NCI-H1650	0.415
NCI-H1915	0.327
HCC-366	0.579
NCI-H1793	0.29
RERF-LC-KJ	0.441
EMC-BAC-2	0.471
LCLC-97TM1	0.327
NCI-H1651	0.308

same assay, conditions: first compound 5 µM

Cell Line	relative viability
SW 900	0.617
CAL-12T	0.532
HCC-15	0.376
HOP-62	0.558
NCI-H460	0.361
NCI-H2085	0.671
A-427	0.219
NCI-H520	0.46
NCI-H1792	0.185
NCI-H3122	0.305
NCI-H1395	0.372
201T	0.374
NCI-H1993	0.555
NCI-H1355	0.333
NCI-H1437	0.308
NCI-H661	0.238
COR-L 105	0.381
H3255	0.36
NCI-H2347	0.507
NCI-H1975	0.288
NCI-H441	0.641
NCI-H1650	0.375
NCI-H2087	0.541
NCI-H1793	0.281
RERF-LC-KJ	0.401
EMC-BAC-2	0.267
LCLC-97TM1	0.397
NCI-H1651	0.348

same assay, conditions: first compound 15.81 µM

Cell Line	relative viability
SW 900	0.402
CAL-12T	0.554
HCC-15	0.384
HOP-62	0.665
NCI-H460	0.472
LU99A	0.757
NCI-H2085	0.508
A-427	0.218
NCI-H520	0.303
NCI-H838	0.528
NCI-H1792	0.529
NCI-H3122	0.289
BEN	0.276
NCI-H1395	0.421
201T	0.384
NCI-H1993	0.548
NCI-H1355	0.359

Cell Line	relative viability
NCI-H2405	0.335
NCI-H1437	0.371
NCI-H661	0.258
COR-L 105	0.475
H3255	0.312
NCI-H1975	0.36
NCI-H441	0.805
NCI-H1650	0.4
NCI-H1915	0.369
NCI-H2087	0.452
HCC-366	0.482
NCI-H1793	0.294
RERF-LC-KJ	0.417
EMC-BAC-2	0.51
LCLC-97TM1	0.339
NCI-H1651	0.384

same assay, conditions: first compound 50 µM

Cell Line	relative viability
SW 900	0.246
CAL-12T	0.42
HCC-15	0.344
HOP-62	0.528
NCI-H460	0.398
LU99A	0.554
NCI-H2085	0.582
A-427	0.138
NCI-H520	0.445
NCI-H838	0.487
NCI-H1792	0.318
NCI-H3122	0.264
BEN	0.254
NCI-H1395	0.443
201T	0.352
NCI-H1993	0.456
NCI-H1355	0.36

Cell Line	relative viability
NCI-H2405	0.366
NCI-H1437	0.25
NCI-H661	0.266
COR-L 105	0.578
H3255	0.365
NCI-H2347	0.499
NCI-H1975	0.428
NCI-H441	0.809
NCI-H1650	0.408
NCI-H1915	0.388
NCI-H2087	0.456
HCC-366	0.59
NCI-H1793	0.228
RERF-LC-KJ	0.341
EMC-BAC-2	0.34
LCLC-97TM1	0.264
NCI-H1651	0.392

compound: CCOC(=O)CCNc1cc(N2CCc3ccccc3CC2)nc(-c2ccccn2)n1 [GSK-J4] + COc1cccc2cc(-c3nc([C@H]4CC[C@H](C(=O)O)CC4)n4ncnc(N)c34)[nH]c12 [OSI-027] (partner 0.5 µM); assay: as above; settings: first compound 0.5 µM
Procedure, shortened: as §1

Cell Line	relative viability
SW 900	0.543
CAL-12T	0.631
HCC-15	0.722
HOP-62	0.69
NCI-H460	0.586
LU99A	0.267
NCI-H2085	0.796
A-427	0.536
NCI-H520	0.33
NCI-H838	0.452
NCI-H1792	0.671
NCI-H3122	0.88
BEN	0.334
NCI-H1395	0.65
201T	0.668
NCI-H1993	0.536
NCI-H1355	0.438

Cell Line	relative viability
NCI-H2405	0.682
NCI-H1437	0.899
NCI-H661	0.694
COR-L 105	0.631
H3255	0.616
NCI-H2347	0.449
NCI-H1975	0.692
NCI-H441	0.673
NCI-H1650	0.732
NCI-H1915	0.598
NCI-H2087	0.552
HCC-366	1.01
NCI-H1793	0.36
RERF-LC-KJ	0.582
EMC-BAC-2	0.347
LCLC-97TM1	0.443
NCI-H1651	0.79

same assay, conditions: first compound 1.581 µM

Cell Line	relative viability
SW 900	0.602
CAL-12T	0.646
HOP-62	0.692
NCI-H460	0.494
LU99A	0.323
NCI-H2085	0.66
NCI-H520	0.22
NCI-H838	0.353
BEN	0.249
NCI-H1395	0.641
201T	0.414
NCI-H1993	0.485
NCI-H1355	0.316
NCI-H2405	0.703
NCI-H1437	0.761
NCI-H661	0.645
COR-L 105	0.64
H3255	0.545
NCI-H2347	0.347
NCI-H1975	0.677
NCI-H441	0.472
NCI-H1650	0.365
NCI-H1915	0.578
HCC-366	0.889
NCI-H1793	0.215
RERF-LC-KJ	0.475
EMC-BAC-2	0.386
LCLC-97TM1	0.357
NCI-H1651	0.734

same assay, conditions: first compound 5 µM

Cell Line	relative viability
SW 900	0.504
CAL-12T	0.778
HCC-15	0.634
HOP-62	0.722
NCI-H460	0.537
NCI-H2085	0.569
A-427	0.439
NCI-H520	0.278
NCI-H1792	0.778
NCI-H3122	1.1
NCI-H1395	0.515
201T	0.932
NCI-H1993	0.646
NCI-H1355	0.35
NCI-H1437	0.806
NCI-H661	0.559
COR-L 105	0.546
H3255	0.627
NCI-H2347	0.617
NCI-H1975	0.46
NCI-H441	0.567
NCI-H1650	0.673
NCI-H2087	0.851
NCI-H1793	0.258
RERF-LC-KJ	0.485
EMC-BAC-2	0.249
LCLC-97TM1	0.574
NCI-H1651	0.687

same assay, conditions: first compound 15.81 µM

Cell Line	relative viability
SW 900	0.52
CAL-12T	0.61
HCC-15	0.469
HOP-62	0.858
NCI-H460	0.508
LU99A	0.248
NCI-H2085	0.459
A-427	0.396
NCI-H520	0.248
NCI-H838	0.362
NCI-H1792	0.485
NCI-H3122	0.537
BEN	0.315
NCI-H1395	0.591
201T	0.691
NCI-H1993	0.563
NCI-H1355	0.29

Cell Line	relative viability
NCI-H2405	0.521
NCI-H1437	0.882
NCI-H661	0.542
COR-L 105	0.585
H3255	0.529
NCI-H1975	0.675
NCI-H441	0.536
NCI-H1650	0.606
NCI-H1915	0.595
NCI-H2087	0.542
HCC-366	0.524
NCI-H1793	0.167
RERF-LC-KJ	0.473
EMC-BAC-2	0.315
LCLC-97TM1	0.342
NCI-H1651	0.706

same assay, conditions: first compound 50 µM

Cell Line	relative viability
SW 900	0.331
CAL-12T	0.528
HCC-15	0.285
HOP-62	0.497
NCI-H460	0.522
LU99A	0.236
NCI-H2085	0.515
A-427	0.198
NCI-H520	0.257
NCI-H838	0.385
NCI-H1792	0.681
NCI-H3122	0.674
BEN	0.212
NCI-H1395	0.569
201T	0.721
NCI-H1993	0.527
NCI-H1355	0.278

Cell Line	relative viability
NCI-H2405	0.556
NCI-H1437	0.648
NCI-H661	0.435
COR-L 105	0.692
H3255	0.531
NCI-H2347	0.338
NCI-H1975	0.681
NCI-H441	0.433
NCI-H1650	0.553
NCI-H1915	0.657
NCI-H2087	0.421
HCC-366	0.785
NCI-H1793	0.2
RERF-LC-KJ	0.382
EMC-BAC-2	0.311
LCLC-97TM1	0.269
NCI-H1651	0.721
